Assay results taken from ChEMBL document CHEMBL1201862, “PubChem BioAssay data set” (2004).
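In this assay, cells in 96-well plates receive the compound at five concentrations for 48 hours. Endpoints are linearly interpolated between the surrounding concentrations. Abbreviation: GI50, concentration required for 50% inhibition of growth.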 The source made the active and inactive calls. No stated cut-off is given here; in the data, active = GI50 up to about 1.1 µM and inactive = higher.

Assays:
Test in all cases: inhibition of tumour cell growth, NCI panel, 48 h
NCI-H23 = system: NCI-H23
M14 = system: M14
CCRF-CEM = system: CCRF-CEM
COLO 205 = system: COLO 205
SF-539 = system: SF-539
NCI-H460 = system: NCI-H460
MOLT-4 = system: MOLT-4
KM12 = system: KM12
786-0 = system: 786-0
CAKI-1 = system: CAKI-1
OVCAR-5 = system: OVCAR-5
IGROV-1 = system: IGROV-1
LOX IMVI = system: LOX IMVI
DMS-273 = system: DMS-273
NCI-H226 = system: NCI-H226
SNB-75 = system: SNB-75
HCC 2998 = system: HCC 2998
SK-OV-3 = system: SK-OV-3

Measured: GI50

NC(=O)Nc1c([N+](=O)[O-])cc(C(F)(F)F)cc1[N+](=O)[O-]
inactive: NCI-H23 43.8 µM | M14 > 100 µM | CCRF-CEM > 100 µM | COLO 205 34.5 µM | SF-539 > 100 µM | NCI-H460 48.1 µM | MOLT-4 > 100 µM | KM12 57.8 µM | 786-0 > 100 µM | CAKI-1 > 100 µM | OVCAR-5 > 100 µM | IGROV-1 > 100 µM | LOX IMVI 44.7 µM | DMS-273 > 100 µM | NCI-H226 > 100 µM

CC1(C)CCC(Sc2ccccc2)O1 (centres undefined)
inactive: NCI-H23 > 100 µM | SNB-75 92 µM | M14 > 100 µM | CCRF-CEM > 100 µM | COLO 205 > 100 µM | HCC 2998 > 100 µM | SF-539 > 100 µM | NCI-H460 > 100 µM | MOLT-4 > 100 µM | KM12 > 100 µM | 786-0 > 100 µM | CAKI-1 > 100 µM | IGROV-1 > 100 µM | SK-OV-3 > 100 µM | LOX IMVI > 100 µM | DMS-273 > 100 µM

O=C1OC(/C=C/c2ccccc2)C(=O)C1=O (centres undefined)
inactive: NCI-H23 > 100 µM | SNB-75 > 100 µM | M14 > 100 µM | CCRF-CEM > 100 µM | COLO 205 > 100 µM | HCC 2998 > 100 µM | SF-539 > 100 µM | NCI-H460 > 100 µM | MOLT-4 > 100 µM | KM12 > 100 µM | 786-0 > 100 µM | OVCAR-5 > 100 µM | IGROV-1 > 100 µM | SK-OV-3 > 100 µM | DMS-273 > 100 µM | NCI-H226 > 100 µM

CN(C)c1ccc(/C=c2\sc3nc4ccccc4n3c2=O)cc1
inactive: NCI-H23 > 100 µM | SNB-75 32.8 µM | M14 > 100 µM | COLO 205 > 100 µM | HCC 2998 > 100 µM | SF-539 > 100 µM | NCI-H460 > 100 µM | KM12 > 100 µM | 786-0 > 100 µM | CAKI-1 > 100 µM | OVCAR-5 > 100 µM | IGROV-1 > 100 µM | LOX IMVI > 100 µM | DMS-273 > 100 µM | NCI-H226 > 100 µM

CCCCCCCCCCCCCCCCOC(=O)C(C(=O)OCCCCCCCCCCCCCCCC)[N+](C)(C)CCOC(C)=O
inactive: NCI-H23 14.6 µM | SNB-75 12.9 µM | M14 19.7 µM | CCRF-CEM 10.3 µM | COLO 205 15.8 µM | HCC 2998 11.4 µM | NCI-H460 28.1 µM | KM12 13.7 µM | 786-0 14.3 µM | CAKI-1 12.6 µM | OVCAR-5 20.8 µM | IGROV-1 3.92 µM | SK-OV-3 17.8 µM | LOX IMVI 21.8 µM | DMS-273 9.2 µM | NCI-H226 18.7 µM

c1ccc(/N=C2\c3ccccc3C3=NCCCN32)cc1
inactive: NCI-H23 41.5 µM | SNB-75 50.9 µM | M14 > 100 µM | CCRF-CEM 61.1 µM | COLO 205 62.1 µM | HCC 2998 49.7 µM | SF-539 49.3 µM | NCI-H460 55.1 µM | MOLT-4 39.4 µM | KM12 38.7 µM | 786-0 90.4 µM | CAKI-1 27.1 µM | OVCAR-5 > 100 µM | IGROV-1 59.8 µM | LOX IMVI 47.1 µM | DMS-273 36.3 µM | NCI-H226 27.2 µM

CCC(C)c1cccc(C)c1NC(=O)C(=O)Cc1nc2ccccc2s1 (centres undefined)
inactive: NCI-H23 > 100 µM | SNB-75 > 100 µM | M14 > 100 µM | CCRF-CEM > 100 µM | COLO 205 > 100 µM | HCC 2998 > 100 µM | SF-539 > 100 µM | NCI-H460 > 100 µM | MOLT-4 > 100 µM | KM12 > 100 µM | 786-0 > 100 µM | CAKI-1 > 100 µM | OVCAR-5 > 100 µM | IGROV-1 > 100 µM | SK-OV-3 > 100 µM | LOX IMVI > 100 µM | DMS-273 > 100 µM

C/C=C1/C=CC2c3[nH]c4ccccc4c3CCN2C1 (centres undefined)
inactive: NCI-H23 > 400 µM | CCRF-CEM > 400 µM | COLO 205 > 400 µM | HCC 2998 > 400 µM | SF-539 > 400 µM | NCI-H460 > 400 µM | MOLT-4 > 400 µM | KM12 > 400 µM | 786-0 > 400 µM | CAKI-1 > 400 µM | IGROV-1 > 400 µM | SK-OV-3 > 400 µM | LOX IMVI > 400 µM | DMS-273 > 400 µM | NCI-H226 358 µM

COc1ccc(C2CCc3cc4c(cc3/C2=N/OC(C)=O)OCO4)cc1OC (centres undefined)
inactive: NCI-H23 10.4 µM | SNB-75 18.3 µM | M14 20.6 µM | CCRF-CEM 25.6 µM | COLO 205 22.5 µM | SF-539 17.9 µM | MOLT-4 15.8 µM | KM12 20.8 µM | 786-0 32.5 µM | OVCAR-5 32.9 µM | IGROV-1 24.3 µM | SK-OV-3 28.8 µM | LOX IMVI 15.9 µM | DMS-273 24.8 µM | NCI-H226 12.6 µM

Cn1c(=O)c(C(c2ccc([N+](=O)[O-])cc2)c2c(O)c3ccccc3n(C)c2=O)cc2ccccc21 (centres undefined)
inactive: NCI-H23 32.6 µM | SNB-75 23 µM | M14 37.8 µM | COLO 205 32.7 µM | HCC 2998 > 100 µM | SF-539 43.6 µM | NCI-H460 > 100 µM | MOLT-4 41.7 µM | KM12 75.2 µM | 786-0 54.6 µM | CAKI-1 47.8 µM | OVCAR-5 28.4 µM | IGROV-1 42.3 µM | SK-OV-3 60.1 µM | LOX IMVI 35.2 µM | DMS-273 37.2 µM | NCI-H226 13.4 µM

N#CC12CC3(CCC1CCC1(C2)OCCO1)OCCO3 (centres undefined)
inactive: NCI-H23 > 100 µM | SNB-75 > 100 µM | M14 > 100 µM | CCRF-CEM > 100 µM | COLO 205 > 100 µM | HCC 2998 > 100 µM | SF-539 > 100 µM | NCI-H460 > 100 µM | MOLT-4 > 100 µM | KM12 > 100 µM | 786-0 > 100 µM | CAKI-1 > 100 µM | OVCAR-5 > 100 µM | IGROV-1 > 100 µM | SK-OV-3 > 100 µM | LOX IMVI > 100 µM | DMS-273 > 100 µM | NCI-H226 > 100 µM

Nc1ccccc1N
inactive: NCI-H23 > 100 µM | SNB-75 > 100 µM | M14 > 100 µM | CCRF-CEM 21.1 µM | COLO 205 > 100 µM | HCC 2998 > 100 µM | SF-539 > 100 µM | NCI-H460 > 100 µM | MOLT-4 36.7 µM | KM12 > 100 µM | 786-0 > 100 µM | CAKI-1 > 100 µM | OVCAR-5 > 100 µM | IGROV-1 > 100 µM | SK-OV-3 > 100 µM | LOX IMVI > 100 µM | DMS-273 > 100 µM
